The values that follow come from PMC9839475 (Journal of acquired immune deficiency syndromes (1999), 2023).

One data set concerns HIV-1. Conditions: cited from earlier work.
The nature of data set [1]: Cohort 2 week 1 intensive PK, DOR FDC once daily. It is filed as in vivo, adolescents with HIV-1. The settings on record: for time at which Cmax occurred: Cohort 2, week 1, oral DOR/3TC/TDF, intensive PK.
Data set [2] can be described thus: Cohort 1 intensive PK after a single 100 mg doravirine tablet. Also on record: species or system adolescents with HIV-1. Conditions: in vivo, po.
Data set [3] in a line: Cohort 1 safety through week 2. It is filed as in vivo, adolescents with HIV-1.
For data set [4] the following is noted: adults taking 200mg daily; upper PK target of Cohort 1; cited from earlier work.
A short description of data set [5]: Cohort 2 sparse PK weeks 4-24, DOR FDC once daily. It is filed as in vivo, adolescents with HIV-1.
The subject of the next data set is CYP3A. The settings on record: cited from earlier work.
For data set [6] the following is noted: in vivo.
Details of data set [7]: species or system adolescents with HIV-1. Conditions: in vivo.

Read-outs that look alike come from different tables or passages of the source.

Take `Cn1c(Cn2ccc(C(F)(F)F)c(Oc3cc(Cl)cc(C#N)c3)c2=O)n[nH]c1=O` [Doravirine]: in the data set on HIV-1, the “lipid levels compared to darunavir/ritonavir” value is listed as “significantly improved lipid levels”. The “discontinuations due to adverse events” value in the data set with HIV-1 (week 48, doravirine plus 2 NRTIs, adults naïve to antiretroviral therapy) is recorded as less than 1%. Further, the “virologic response versus darunavir/ritonavir” value in the data set with HIV-1 (week 48, plus 2 NRTIs) is “not inferior”. Also, the “Cl/F, geometric mean (geometric CV%)” value in data set [1] (Cohort 2, week 1, 100 mg daily as DOR FDC, n=10) is recorded as 10.3 (47) L/h; in data set [2], 6.75 (43) L/h. Besides, the “C24,ss observed, geometric mean (geometric CV%)” value in [1] (Cohort 2, week 1, 100 mg daily as DOR FDC, n=10, 8/10 switched from efavirenz) is recorded as 282 (74) nM. Besides, the Tmax – broadly, the time at which the peak concentration occurs – in data set [1] (human, plasma, oral) is approximately 2 h; in [1] (human, plasma, po, 100 mg), 1.95 h; in data set [2] (human, Tmax, median (range)), approximately 4 h. In addition, the maximum concentration (Cmax) (as a rule, the maximum level reached in the sampled fluid or tissue) in data set [1] (human, plasma, po, 100 mg) is 2130 nM. Moreover, the AUC(0-inf) (in general, total exposure, with the tail of the curve extrapolated) in data set [2] (human) was 34.8 µM·h. Further, in [2] (human), the “Tmax, median (range)” value was 3.78 (1.00–7.75) h. Also, the Vd/F – broadly, the apparent distribution volume after extravascular dosing – in data set [2] (human) amounted to 115 L. The half-life (usually the time needed for the level to fall by half in the phase considered) in [2] (human) is 11.8 h. Also, the “participants who died due to adverse event” value in data set [3] (Cohort 1, N=9, 100mg single dose, through week 2) is on record as 0 (0) n (%). In [3] (human, in vivo, 2 weeks), the “Grade 3 or 4 adverse events” value is recorded as “no Grade 3 or 4 adverse events”. Also, in [3] (human, in vivo, 2 weeks), the “participants with at least one Grade 1 or Grade 2 adverse event” value was determined as 44.4%. For the same molecule, in [3] (in vivo), the tolerability result was “well tolerated”. The “geometric AUC0–24hr at steady-state” value in data set [4] is 64 µM·h. Also, the “geometric mean steady state doravirine concentrations” value in data set [5] (Cohort 2, all participants, Week 4 through Week 24) is on record as more than 560 nM. Besides, the “DOR plasma concentration, geometric mean” value in data set [5] (Cohort 2, week 4, predose, N=45, DOR/3TC/TDF once daily) stood at 747 nM; in data set [5] (Cohort 2, week 8, random time, N=44, DOR/3TC/TDF once daily) it was 1320 nM; in [5] (Cohort 2, week 12, random time, N=44, DOR/3TC/TDF once daily) it was 2020 nM; in data set [5] (Cohort 2, week 24, 0.5–2 hours post dose, N=43, DOR/3TC/TDF once daily) it was 1870 nM; in data set [5] (Cohort 2, week 24, predose, N=43, DOR/3TC/TDF once daily) it was 1090 nM.
`O=C1Nc2ccc(Cl)cc2[C@@](C#CC2CC2)(C(F)(F)F)O1` [efavirenz]: the CYP3A induction result with CYP3A is on record as “moderate CYP3A inducer”.
Regarding `Nc1ccn([C@@H]2CS[C@H](CO)O2)c(=O)n1` [lamivudine], in data set [1], the “time at which Cmax occurred” value was approximately 2 h.
Same read-out and setting: for `C[C@H](Cn1cnc2c(N)ncnc21)OCP(=O)(O)O` [tenofovir] the value was “approximately 1 hour”.
Consider “doravirine/lamivudine/tenofovir disoproxil fumarate [DOR FDC]”, for which, in data set [6], the “grade 3 diarrhea and gastroenteritis” value was “one participant”; the “grade 3 increased ALT” value was “one participant”; the “participants meeting safety endpoint eGFR <60 ml/min/1.73m^2” value was “No participant”; the “participants who experienced at least one adverse event” value worked out at 45 participants. For the same molecule, in data set [6], the “participants with Grade 1 dizziness assessed as related to the study drug” value was 2.2%, the “participants with concomitant grade 3 increased creatinine” value was found to be 2, the “participants with grade 3 decreased eGFR” value is reported as “Three participants” and the “participants with no adverse events” value is recorded as 0 (0) n (%). In [6], the “participants with one or more Grade 3 or greater adverse events” value is 9 (20.0) n (%), the “participants with one or more Grade 3 or greater drug-related adverse events” value is 0 (0) n (%), the “participants with one or more adverse events” value is on record as 45 (100.0) n (%) and the “participants with one or more drug-related adverse events” value was 1 (2.2) n (%). In data set [6], the “participants with one or more grade 3 adverse events” value was determined as 20%, the “participants with one or more serious adverse events” value is given as 1 (2.2) n (%), the “participants with one or more serious drug-related adverse events” value is listed as 0 (0) n (%) and the tolerability result is on record as “well tolerated”. For the same molecule, in data set [7], the “Alanine Aminotransferase, mean change [95% CI]” value is 1.2 [−7.3, 9.6] IU/L; the “Alkaline Phosphatase, mean change [95% CI]” value is −20.7 [−35.1, −6.3] IU/L; the “Aspartate Aminotransferase, mean change [95% CI]” value is 0.8 [−5.1, 6.7] IU/L; the “Bilirubin, mean change [95% CI]” value was −0.0 [−0.2, 0.1] mg/dL. In data set [7], the “Creatinine, mean change [95% CI]” value was 0.0 [0.0, 0.1] mg/dL; the “HDL Cholesterol, mean change [95% CI]” value was −11.3 [−15.9, −6.6] mg/dL; the “LDL Cholesterol, mean change [95% CI]” value was −12.5 [−20.7, −4.2] mg/dL; the “eGFR from Creatinine Adjusted for BSA, mean change [95% CI]” value is −6.5 [−15.2, 2.2] mL/min/1.73m^2.
